Reference: patent publication US20100305124A1, “Acylated Aminopyridine and Aminopyridazine Insecticides” (BAYER CROPSCIENCE AG, priority 2009, published 2010)
Where two headings read alike, the source gives them in different places.

System: green peach aphid (Myzus persicae)
Test: Myzus test (MYZUPE), sprayed aubergine plants
Type: in vivo
Settings: read-out: effect in % (aphids killed); for pest or weed control at 100 ppm: application rate of 100 ppm
Procedure: Solvent: 3 parts by weight of dimethylformamide Emulsifier: 1 part by weight of polyoxyethylenealkyl phenyl ether
An appropriate preparation of active ingredient is prepared by mixing 1 part by weight of active ingredient with the stated amount of solvent and emulsifier and diluting the concentrate with water to the desired concentration.
Aubergine plants (Solanum melongena) infested by all stages of the green peach aphid (Myzus persicae) are sprayed with a preparation of active ingredient at the desired concentration.
After the desired time, the effect in % is determined; here, 100% means that all of the aphids have been killed. Conversely, 0% means that no aphids have been killed.

[1] = application rate of 500 ppm, spray on aubergine plants

Structure (SMILES)	pest or weed control at 500 ppm [1]	other results
COc1nc(OC)nc(Sc2ccc(C(=O)N(C)c3cccnc3)cc2)n1 [I-189]	≥ 80%	
CN(C(=O)c1ccc(/C=N/C2CCCC2)cc1)c1cccnc1 [I-233]	≥ 80%	
CN(C(=O)c1cnc(Oc2ccc(OC(F)(F)F)cc2)c(Cl)c1)c1cccnc1 [I-147]	≥ 80%	
CN(C(=O)c1ccc(Sc2ccc(C(F)(F)F)cn2)nc1)c1cccnc1 [I-119]	≥ 80%	
CSCc1ccc(C(=O)Nc2cccnc2)cc1 [I-32]	≥ 80%	
CN(C(=O)c1ccc(Oc2ccc(-n3cncn3)cc2)nc1)c1cccnc1 [I-128]	≥ 80%	
CSCc1cccc(C(=O)Nc2cccnc2)c1 [I-16]	≥ 80%	
CCN(C(=O)c1ccc(SC)c(F)c1)c1cccnc1 [I-67]	≥ 80%	
C=CCN(C(=O)c1ccc(Oc2ccc(OC(F)(F)F)cc2)nc1)c1cccnc1 [I-134]	≥ 80%	
O=C(Nc1cccnc1)c1ccc(C(F)(F)C(F)(F)C(F)(F)F)nc1 [I-30]		pest or weed control at 500 ppm: ≥ 80%
COc1cc(OC)nc(Oc2ccc(C(=O)N(C)c3cccnc3)cn2)n1 [I-145]	≥ 80%	
CCN(C(=O)c1ccc(N(C)C(=O)C(F)(F)Cl)cc1)c1cccnc1 [I-246]	≥ 80%	
CCSc1ccc(C(=O)Nc2cccnc2)cc1 [I-55]	≥ 80%	
CCN(C)C(=O)c1cccc(C(=O)N(C)c2cccnc2)c1 [I-74]	≥ 80%	
Cc1cncc(C(=O)Nc2cccnc2)c1 [I-10]		pest or weed control at 100 ppm (spray on aubergine plants): ≥ 80%
CCN(C(=O)c1ccc(Oc2nc(C)cc(C)n2)cc1)c1cccnc1 [I-183]	≥ 80%	
C#CCN(C(=O)c1ccc(Sc2nc(C)cc(C)n2)nc1)c1cccnc1 [I-225]	≥ 80%	
CCN(C(=O)c1ccc(Sc2nc(OC)cc(OC)n2)nc1)c1cccnc1 [I-175]	≥ 80%	
COc1ccc(C(=O)Nc2cccnc2)cc1C(=O)NC(C)C [I-78]	≥ 80%	
COc1ccc(C(=O)N(C)c2cccnc2)cc1C(=O)NC(C)C [I-79]	≥ 80%	
COc1cc(OC)nc(COc2cccc(C(=O)N(C)c3cccnc3)c2)n1 [I-207]	≥ 80%	
O=C(Nc1cccnc1)c1ccc(NCC2CC2)nc1 [I-210]	≥ 80%	
O=C(Nc1cccnc1)c1ccc(Cn2ccc(C(F)(F)F)n2)nc1 [I-28]	≥ 80%	

Structure (SMILES)	pest or weed control at 500 ppm [1]	other results
CN(C(=O)c1ccc(Sc2ccc(Cl)cc2)nc1)c1cccnc1 [I-107]	≥ 80%	
CSCc1ccc(C(=O)N(C)c2cccnc2)cn1 [I-64]	≥ 80%	
CN(C(=O)c1ccc(Sc2ccc(C(F)(F)F)cc2)nc1)c1cccnc1 [I-118]	≥ 80%	
CCN(C(=O)c1ccc(Oc2ccc(C(F)(F)F)cc2)nc1)c1cccnc1 [I-157]	≥ 80%	
CCSc1ccc(C(=O)N(CC)c2cccnc2)cc1 [I-65]		pest or weed control at 100 ppm (spray on aubergine plants): ≥ 80%
COc1nc(OC)nc(Sc2ccc(C(=O)N(C)c3cccnc3)cn2)n1 [I-200]	≥ 80%	
CCSc1ccc(C(=O)N(C)c2cccnc2)cc1 [I-56]	≥ 80%	
CN(C(=O)c1ccc(Cn2nc(C(F)(F)F)nc2C(F)(F)F)cc1)c1cccnc1 [I-26]	≥ 80%	
CCN(C(=O)c1ccc(Oc2ccc([N+](=O)[O-])cc2)nc1)c1cccnc1 [I-163]	≥ 80%	
Cc1cc(C)nc(Sc2ccc(C(=O)Nc3cccnc3)cn2)n1 [I-159]	≥ 80%	
CN(C(=O)c1cnc(Oc2ccc(S(C)(=O)=O)cc2)c(Cl)c1)c1cccnc1 [I-148]	≥ 80%	
CCN(C(=O)c1ccc(Oc2nc(C)cc(C)n2)nc1)c1cccnc1 [I-187]	≥ 80%	
CSc1ccc(C(=O)Nc2cccnc2)cc1 [I-36]	≥ 80%	
CCN(C(=O)c1ccc(Oc2cccc(C(F)(F)F)c2)nc1)c1cccnc1 [I-221]	≥ 80%	
N#Cc1ccc(Oc2ccc(C(=O)Nc3cccnc3)cn2)cc1 [I-164]	≥ 80%	
CCN(C(=O)c1ccc(Sc2nccc(C)n2)nc1)c1cccnc1 [I-197]	≥ 80%	
CCN(C(=O)c1ccc(Oc2ccc(S(C)(=O)=O)cc2)nc1)c1cccnc1 [I-154]	≥ 80%	
COc1cc(OC)nc(Oc2ccc(C(=O)N(C)c3cccnc3)cc2)n1 [I-171]	≥ 80%	
CN(C(=O)c1ccc(Oc2ccc(S(C)(=O)=O)cc2)nc1)c1cccnc1 [I-101]	≥ 80%	
O=C(Nc1cccnc1)c1ccc(Oc2ccc(C(F)(F)F)cc2)nc1 [I-109]	≥ 80%	
CN(C(=O)c1ccc(Cn2nc(C(F)(F)F)nc2C(F)(F)F)nc1)c1cccnc1 [I-50]	≥ 80%	
CCN(C(=O)c1ccc(Sc2nc(C)cc(C)n2)cc1)c1cccnc1 [I-180]	≥ 80%	
